In US8445008B2, “Reduction of infection associated with medical device” (Medtronic, Inc., priority 2008, dated 2013):
Converted amounts (≈) assume the structure as drawn.

Key:
S. aureus = assay: Minimum inhibitory concentration against the S. aureus strain used in the studies; format: cell-based; details: Staphylococcus aureus; strain of S. aureus used in the studies
[1] = Solubility in extraction/HPLC solvents; format: physicochemical

CO[C@H]1/C=C/O[C@@]2(C)Oc3c(C)c(O)c4c(O)c(c(/C=N/N5CCN(C)CC5)c(O)c4c3C2=O)NC(=O)/C(C)=C\C=C\[C@H](C)[C@H](O)[C@@H](C)[C@@H](O)[C@@H](C)[C@H](OC(C)=O)[C@@H]1C [rifampin]
MIC (S. aureus): 0.06 µg/mL (≈ 0.0729 µM)
solubility in methanol and THF/ethanol 4:1 [1]: good solubility
